Data published in patent US8063071B2 (GlaxoSmithKline, LLC, priority 2007, dated 2011).
Where a name gives a salt, the structure may show the parent alone.

Legend:
[1] = molecular target: T1, Recombinant human IKKβ (residues 1-737) (Homo sapiens, UniProt O14920); test: IKK2 assay (TR-FRET); type: biochemical; conditions: ATP 1 μM final, read-out: pIC50 against IKK2 (converted)
T1 construct: Recombinant human IKKβ (residues 1-737); GST (C); made in house
T1 sequence (O14920 1-737): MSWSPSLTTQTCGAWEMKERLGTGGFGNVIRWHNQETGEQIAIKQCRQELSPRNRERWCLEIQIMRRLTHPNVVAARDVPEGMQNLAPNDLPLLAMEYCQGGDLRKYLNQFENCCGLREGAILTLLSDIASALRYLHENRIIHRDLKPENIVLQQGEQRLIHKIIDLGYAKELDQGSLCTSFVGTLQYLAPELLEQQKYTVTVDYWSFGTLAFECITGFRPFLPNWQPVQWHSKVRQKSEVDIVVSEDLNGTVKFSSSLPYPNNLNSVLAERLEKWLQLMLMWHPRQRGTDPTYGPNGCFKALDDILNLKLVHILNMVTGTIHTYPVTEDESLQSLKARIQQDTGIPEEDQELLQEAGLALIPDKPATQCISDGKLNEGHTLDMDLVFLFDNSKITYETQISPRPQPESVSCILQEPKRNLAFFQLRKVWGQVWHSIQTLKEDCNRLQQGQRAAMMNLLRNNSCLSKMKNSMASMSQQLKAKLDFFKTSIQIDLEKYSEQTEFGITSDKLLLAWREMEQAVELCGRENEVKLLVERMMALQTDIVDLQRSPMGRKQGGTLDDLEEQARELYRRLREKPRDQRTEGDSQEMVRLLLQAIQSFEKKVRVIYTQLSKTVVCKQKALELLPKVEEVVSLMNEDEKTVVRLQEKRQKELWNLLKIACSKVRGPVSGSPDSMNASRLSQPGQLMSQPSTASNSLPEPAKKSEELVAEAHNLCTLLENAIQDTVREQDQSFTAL
Outline: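 TR-FRET readout (665 nm over 620 nm Eu reference) of GST-IB Ser32/36 phosphorylation after 60 min detection. Reaction: 1 μM ATP, 25 nM substrate, 0.5-5 nM GST-fused IKKβ 1-737 from baculovirus, pH 7.4 HEPES buffer, 1.7% DMSO, 15 min room temperature, EDTA-terminated.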

[2] = tested on: human monocyte stimulated cytokine production (TNF-α); test: Monocyte assay (LPS-stimulated TNF-α production); type: cell-based; conditions: for IC50: 24 h, 200 ng/mL LPS, TNF-α by ELISA; for inhibition at 0.3 µM: read-out: inhibition at 300 nM in the monocyte assay
Experimental: Effect of IKK-β inhibition on human monocyte stimulated cytokine production was assessed as follows: Monocytes were isolated from heparinized whole blood by Ficoll gradient, followed by purification of CD14+ cells using MACS magnetic cell separation beads. Isolated monocytes were then adhered to 96-well culture plates at 1×10^6 cells/mL in RPMI 1640 10% FBS (JRH Biosciences, Lenexa Kans.) for 2 h. Test compounds are added to the wells 30 minutes prior to stimulation with a final vehicle concentration of 0.1% DMSO. Monocytes were activated by the addition of 200 ng/mL endotoxin (LPS; E. coli serotype 026:B6)(Sigma, St. Louis, Mo.) and incubated for 24 hrs at 37 C. Cell-free supernates were analyzed by ELISA for TNF-α using Pharmingen matched pair Abs. Viability of the cells was determined by 10% trypan blue exclusion.

Row | Structure (SMILES) | IC50 [1] | IC50 [2] | inhibition at 0.3 µM [2]
1 | CCS(=O)(=O)N1CCC(c2c[nH]c3c(C(N)=O)cc(-c4ccc(CN5CCCCC5)cc4)cc23)CC1 [Example 27, 3-[1-(ethylsulfonyl)-4-piperidinyl]-5-[4-(1-piperidinylmethyl)phenyl]-1H-indole-7-carboxamide] | ≤ 10 µM | ≤ 1.5 µM | –
2 | CCS(=O)(=O)N1CCC(c2c[nH]c3c(C(N)=O)cc(-c4ccc(CN5CCOCC5)cc4)cc23)CC1 [Example 29, 3-[1-(ethylsulfonyl)-4-piperidinyl]-5-[4-(4-morpholinylmethyl)phenyl]-1H-indole-7-carboxamide] | ≤ 10 µM | ≤ 1.5 µM | –
3 | CCS(=O)(=O)N1CCC(c2c[nH]c3c(C(N)=O)cc(-c4ccc5c(c4)C(NCC(C)C)CC5)cc23)CC1 (stereo not drawn) [Example 33, 3-[1-(ethylsulfonyl)-4-piperidinyl]-5-{3-[(2-methylpropyl)amino]-2,3-dihydro-1H-inden-5-yl}-1H-indole-7-carboxamide trifluoroacetate] | ≤ 10 µM | ≤ 1.5 µM | –
4 | CCS(=O)(=O)N1CCC(c2c[nH]c3c(C(N)=O)cc(-c4cc(CNCC(F)(F)F)ccc4F)cc23)CC1 [Example 36, 3-[1-(ethylsulfonyl)-4-piperidinyl]-5-(2-fluoro-5-{[(2,2,2-trifluoroethyl)amino]methyl}phenyl)-1H-indole-7-carboxamide trifluoroacetate] | ≤ 10 µM | > 1 µM | –
5 | CCS(=O)(=O)N1CCC(c2c[nH]c3c(C(N)=O)cc(-c4ccc5c(c4)CNCC5)cc23)CC1 [Example 37, 3-[1-(ethylsulfonyl)-4-piperidinyl]-5-(1,2,3,4-tetrahydro-7-isoquinolinyl)-1H-indole-7-carboxamide trifluoroacetate] | ≤ 10 µM | ≤ 1.5 µM | –
6 | CCS(=O)(=O)N1CCC(c2c[nH]c3c(C(N)=O)cc(-c4csc(CNCC(F)(F)F)n4)cc23)CC1 [Example 40, 3-[1-(ethylsulfonyl)-4-piperidinyl]-5-(2-{[(2,2,2-trifluoroethyl)amino]methyl}-1,3-thiazol-4-yl)-1H-indole-7-carboxamide trifluoroacetate] | ≤ 10 µM | – | 0 to 60%
7 | CCS(=O)(=O)N1CCC(c2c[nH]c3c(C(N)=O)cc(-c4csc(CN(C)C5CCN(C)CC5)c4)cc23)CC1 [Example 42, 3-[1-(ethylsulfonyl)-4-piperidinyl]-5-(5-{[methyl(1-methyl-4-piperidinyl)amino]methyl}-3-thienyl)-1H-indole-7-carboxamide trifluoroacetate] | ≤ 10 µM | ≤ 1.5 µM | –
8 | CCS(=O)(=O)N1CCC(c2c[nH]c3c(C(N)=O)cc(-c4csc(CN(C)CCC#N)c4)cc23)CC1 [Example 43, 5-(5-{[(2-cyanoethyl)(methyl)amino]methyl}-3-thienyl)-3-[1-(ethylsulfonyl)-4-piperidinyl]-1H-indole-7-carboxamide trifluoroacetate] | ≤ 10 µM | ≤ 1.5 µM | –
9 | CCS(=O)(=O)N1CCC(c2c[nH]c3c(C(N)=O)cc(-c4csc(CN(C)CC(N)=O)c4)cc23)CC1 [Example 44, 5-(5-{[(2-amino-2-oxoethyl)(methyl)amino]methyl}-3-thienyl)-3-[1-(ethylsulfonyl)-4-piperidinyl]-1H-indole-7-carboxamide trifluoroacetate] | ≤ 10 µM | ≤ 1.5 µM | –
10 | CCS(=O)(=O)N1CCC(c2c[nH]c3c(C(N)=O)cc(-c4csc(CN(C)CCS(=O)(=O)c5ccccc5)c4)cc23)CC1 [Example 45, 3-[1-(ethylsulfonyl)-4-piperidinyl]-5-[5-({methyl[2-(phenylsulfonyl)ethyl]amino}methyl)-3-thienyl]-1H-indole-7-carboxamide trifluoroacetate] | ≤ 10 µM | – | 0 to 60%
11 | CCS(=O)(=O)N1CCC(c2c[nH]c3c(C(N)=O)cc(-c4csc(CN5CCCC5c5ccccc5)c4)cc23)CC1 (stereo not drawn) [Example 46, 3-[1-(ethylsulfonyl)-4-piperidinyl]-5-{5-[(2-phenyl-1-pyrrolidinyl)methyl]-3-thienyl}-1H-indole-7-carboxamide] | ≤ 10 µM | – | 0 to 60%
12 | CCS(=O)(=O)N1CCC(c2c[nH]c3c(C(N)=O)cc(-c4csc(CN5CCCC5CN5CCCCC5)c4)cc23)CC1 (stereo not drawn) [Example 47, 3-[1-(ethylsulfonyl)-4-piperidinyl]-5-(5-{[2-(1-piperidinylmethyl)-1-pyrrolidinyl]methyl}-3-thienyl)-1H-indole-7-carboxamide] | ≤ 10 µM | – | 0 to 60%

Further lines, with some results ahead:

Row | IC50 [1] | IC50 [2] | Structure (SMILES) | inhibition at 0.3 µM [2]
13 | ≤ 10 µM | > 1 µM | CCCNCc1cccc(-c2cc(C(N)=O)c3[nH]cc(C4CCN(S(=O)(=O)CC)CC4)c3c2)c1 [Example 24, 3-[1-(ethylsulfonyl)-4-piperidinyl]-5-{3-[(propylamino)methyl]phenyl}-1H-indole-7-carboxamide] | –
14 | ≤ 10 µM | ≤ 1.5 µM | CCS(=O)(=O)N1CCC(c2c[nH]c3c(C(N)=O)cc(-c4cccc(CNC(C)C)c4)cc23)CC1 [Example 25, 3-[1-(ethylsulfonyl)-4-piperidinyl]-5-(3-{[(1-methylethyl)amino]methyl}phenyl)-1H-indole-7-carboxamide] | –
15 | ≤ 10 µM | ≤ 1.5 µM | CCC(CC)NCc1cccc(-c2cc(C(N)=O)c3[nH]cc(C4CCN(S(=O)(=O)CC)CC4)c3c2)c1 [Example 26, 5-(3-{[(1-ethylpropyl)amino]methyl}phenyl)-3-[1-(ethylsulfonyl)-4-piperidinyl]-1H-indole-7-carboxamide] | –
16 | ≤ 10 µM | ≤ 1.5 µM | CCS(=O)(=O)N1CCC(c2c[nH]c3c(C(N)=O)cc(-c4cccc(CNC)c4)cc23)CC1 [Example 28, 3-[1-(ethylsulfonyl)-4-piperidinyl]-5-{3-[(methylamino)methyl]phenyl}-1H-indole-7-carboxamide] | –
17 | ≤ 10 µM | ≤ 1.5 µM | CCS(=O)(=O)N1CCC(c2c[nH]c3c(C(N)=O)cc(-c4ccc(CN)cc4)cc23)CC1 [Example 30, 5-[4-(aminomethyl)phenyl]-3-[1-(ethylsulfonyl)-4-piperidinyl]-1H-indole-7-carboxamide] | –
18 | ≤ 10 µM | ≤ 1.5 µM | CCS(=O)(=O)N1CCC(c2c[nH]c3c(C(N)=O)cc(-c4cccc(CNC5CC5)c4)cc23)CC1 [Example 31, 5-{3-[(cyclopropylamino)methyl]phenyl}-3-[1-(ethylsulfonyl)-4-piperidinyl]-1H-indole-7-carboxamide] | –
19 | ≤ 10 µM | > 1 µM | CCS(=O)(=O)N1CCC(c2c[nH]c3c(C(N)=O)cc(-c4cc(CNCCC#N)ccc4F)cc23)CC1 [Example 35, 5-(5-{[(2-cyanoethyl)amino]methyl}-2-fluorophenyl)-3-[1-(ethylsulfonyl)-4-piperidinyl]-1H-indole-7-carboxamide trifluoroacetate] | –
20 | ≤ 10 µM | ≤ 1.5 µM | CCS(=O)(=O)N1CCC(c2c[nH]c3c(C(N)=O)cc(-c4cccc(CNCC(F)(F)F)c4)cc23)CC1 [Example 38, 3-[1-(ethylsulfonyl)-4-piperidinyl]-5-(3-{[(2,2,2-trifluoroethyl)amino]methyl}phenyl)-1H-indole-7-carboxamide trifluoroacetate] | –
21 | ≤ 10 µM | – | CCS(=O)(=O)N1CCC(c2c[nH]c3c(C(N)=O)cc(-c4cccc(CN(C)CC(N)=O)c4)cc23)CC1 [Example 39, 5-(3-{[(2-amino-2-oxoethyl)(methyl)amino]methyl}phenyl)-3-[1-(ethylsulfonyl)-4-piperidinyl]-1H-indole-7-carboxamide trifluoroacetate] | 0 to 60%
